# Test results published in patent US9724380B2, “Method and compositions for synchronizing time of insemination in gilts” (JBS UNITED ANIMAL HEALTH II LLC, priority 2012, dated 2017).
# Columns and labels:
# Assay type in all cases: in vivo, swine
# [1] = test system: gilts; assay: Example 5: estrus observation after triptorelin gel dose groups; conditions: all treatments (did not differ among treatments)
# Experimental: (§1) All gilts were individually fed MATRIX® as a top-dress for 14 or 15 days at the recommended rate of 15 mg/gilt/day. Gilts were withdrawn from MATRIX® feeding (last top-dress in the morning on Day 0) and allocated to each of the following treatments. Controls were vehicle gel treated (vehicle gel without triptorelin) at 120 (+/−2) hours following MATRIX® withdrawal (last top dress). The other gilts were given 100, 200 or 400 mcg triptorelin as the acetate in a methylcellulose gel formulation 120 (+/−2) hours following MATRIX® withdrawal. The four treatments were: • 1. Vehicle gel (VG): vehicle gel without triptorelin at 120 (+/−2) hours after MATRIX® withdrawal. • 2. TG 100: 100 mcg (2 mL 50 mcg/mL) triptorelin gel at 120 (+/−2) hours after MATRIX® withdrawal. • 3. TG 200: 200 mcg (2 mL 100 mcg/mL) triptorelin gel at 120 (+/−2) hours after MATRIX® withdrawal. • 4. TG 400: 400 mcg (2 mL 200 mcg/mL) triptorelin gel at 120 (+/−2) hours after MATRIX® withdrawal.
# (§2) Triptorelin (pGlu-His-Trp-Ser-Tyr-D-Trp-Leu-Arg-Pro-Gly-NH2) was supplied in the acetate form, from Bachem, Torrance, Calif. (Item H-4075 CGMP grade). Triptorelin gel (100-400 mcg/2 mL dose) was formulated by Argenta (Auckland, NZ) in a gel composed of Methocel Premium A4000 (Dow Chemical), citrate buffer (pH 5.5), NaCl, methionine, and methyl and propyl parabens. Fifty-four milliliters of triptorelin gel (100 mcg triptorelin acetate/mL) was packaged in Amber Borosilicate Glass Serum Vials (610206-50) with a Gray Butyl Pharmaceutical Serum Vial Stopper (73828A-SS) with a Standard Aluminum Seal (SAS20NAT). […] MATRIX® was supplied as the US commercially available form.
# For post-treatment estrus detection, gilts were housed in individual pens. Boars were housed in separate rooms, and/or at least 12 m away and downwind. To elicit signs of estrus, a mature boar was walked slowly in the alley in front of the gilts' crates, exposing each test gilt to visual, auditory and olfactory signals from the boar for up to 5 minutes. In keeping with standard practice at commercial farms, while the boar was near the front of the gilt's crate, estrus was tested by an experienced person applying back pressure to the midsection of the gilt combined with side rubbing. Estrus was confirmed when a gilt stood rigidly to the back pressure, with no vocalization and with some indication of an ear reflex. Gilts were not exposed to boars during the first three days after withdrawal of MATRIX® (Day 0 to Day 2). Estrus detection was performed daily on all gilts from Day 3 to Day 7.
# A single 2 mL dose of triptorelin gel or vehicle gel was deposited within approximately 1-2 cm posterior to the cervix with a catheter similar to those used for artificial insemination. The dose was delivered using a standard multi-dose applicator attached to the catheter. […]
# [2] = test system: gilts; assay: Example 3: estrus observation post-MATRIX; conditions: younger gilts at the second site, all treatments
# Experimental: Three hundred twelve (312) gilts were fed MATRIX® as a top-dress for 14 days at the recommended rate of 15 mg/gilt/day. The last feeding of MATRIX® was at 6:30 AM (Day 0). One hundred four gilts were allocated to each of the following treatments: • 1. Group 1, Controls (n=104); MATRIX® treated, but not OvuGel™ treated, inseminated daily during estrus, as is normally practiced at the site (average of 1.8 inseminations per gilt). • 2. Group 2 (n=104); OvuGel™ treated at 7:00 am (+/−1.5 hours) on Day 5 and inseminated at 2 to 4 hours post-OvuGel™ treatment on Day 5 if expressing estrus. All gilts inseminated once on Day 6, 26 hours (+/−2 hrs) post-OvuGel™ treatment, regardless of estrus status. • 3. Group 3 (n=104); OvuGel™ treated at 7:00 am (+/−1.5 hours) on Day 5 and inseminated once at 2 to 4 hours post-OvuGel™ treatment on Day 5 and again on Day 6, 26 hours (+/−2 hrs) post-OvuGel™ treatment, without regard to estrus on either day.
# (§3) Gilts were housed in individual pens. Boars were housed at least 12 m away and downwind. […] To facilitate detection of estrus, a mature boar was walked slowly in the alley in front of the gilt's pen, exposing each gilt to visual, auditory and olfactory signals from the boar for up to 5 minutes. […]
# [3] = test system: gilts; assay: Example 5: ovulation monitored by transrectal ultrasonography after 100, 200 or 400 mcg triptorelin gel intravaginally at 120 h after MATRIX withdrawal; conditions: all treatments
# Experimental: as §1, §2
# Ovulation was monitored twice on Day 5 (8 hours and 16 hours post-treatment) and every 8 hours on Day 6 and Day 7 or until ovulation was confirmed or 176 hours following last MATRIX® feeding. The ovulatory status of all gilts was monitored by transrectal ultrasonography. An Aloka 500 ultrasound machine is used for this purpose, with a 7.5 MHz linear array transducer attached to a fixed-angle PVC stabilizing rod to facilitate insertion into the rectum. The transducer and PVC rod are coated with a gynecological lubricant and gently inserted into the rectum until the ovaries can be visualized, one at a time. The diameters of the three largest follicles were recorded (to the nearest 0.1 mm) at each scanning. A gilt was declared to have ovulated when the number of large follicles (≧6.5 mm) fell to less than 3.
# A single 2 mL dose of triptorelin gel or vehicle gel was deposited within approximately 1-2 cm posterior to the cervix with a catheter similar to those used for artificial insemination. The dose was delivered using a standard multi-dose applicator attached to the catheter. A new disposable sheath, which surrounds the catheter, was used for each gilt.
# [4] = test system: gilts; assay: Example 2: estrus observation post-MATRIX; conditions: older gilts at the first site, all treatments
# Experimental: Two hundred ninety-seven (297) gilts were fed MATRIX® as a top-dress for 14 days at the recommended rate of 15 mg/gilt/day. The last feeding of MATRIX® was at 5:30 AM (Day 0). Approximately one hundred gilts were allocated to each of the following treatments: • 1. Group 1, Controls (n=100); MATRIX® treated, but not OvuGel™ treated, inseminated daily during estrus, as is normally practiced (average of 1.9 inseminations per gilt). • 2. Group 2 (n=98); OvuGel™ treated at 6:30 am (+/−1 hr) on Day 5 and inseminated at 2 to 11 hours post-OvuGel™ treatment on Day 5 if expressing estrus. All gilts inseminated once on Day 6, 26 hours (+/−2.5 hrs) post-OvuGel™ treatment, regardless of estrus status. • 3. Group 3 (n=99); OvuGel™ treated at 6:30 am (+/−1 hr) on Day 5 and inseminated once at 2.5 to 9.5 hours post-OvuGel™ treatment on Day 5 and again on Day 6, 26.5 hours (+/−3 hrs) post-OvuGel™ treatment, without regard to estrus on either day.
# as §3
structure (smiles),measurement,setting,value
"C=CC[C@]1(O)CC[C@H]2[C@@H]3CCC4=CC(=O)CCC4=C3C=C[C@@]21C [MATRIX®, altrenogest]",interval from last feeding of MATRIX to estrus,[1],146 ± 22 h
same,percentage of gilts which expressed estrus after the last feeding of MATRIX,[1],97%
same,gilts that showed estrus on Day 5,[2],7.4%
same,"gilts ovulated within the experimental period, overall",[3],94%
same,"gilts that first expressed estrus on Day 5 post-MATRIX, average",[4],30.1%
